Assay results as given in patent publication US12491170B2, “Stable treprostinil prodrugs” (United Therapeutics Corporation, priority 2020, dated 2025).

Legend:
[1] = Stability in cryopreserved hepatocytes, human
[2] = Stability in cryopreserved hepatocytes, rat
[3] = Stability in cryopreserved hepatocytes, dog
[4] = Stability in human subcutaneous skin homogenate
[5] = biological target: prostaglandin I2 (PGI2) receptor (IP) (Homo sapiens, UniProt P43119); experiment: IP receptor cAMP agonist assay (CHO-K1 cells); assay type: cell-based; conditions: for IP Relative to Tre: Table 22, relative to treprostinil EC50 values, * partial agonists or ambiguous dose-response curves
Sequence of prostaglandin I2 (PGI2) receptor (IP) (P43119 whole entry): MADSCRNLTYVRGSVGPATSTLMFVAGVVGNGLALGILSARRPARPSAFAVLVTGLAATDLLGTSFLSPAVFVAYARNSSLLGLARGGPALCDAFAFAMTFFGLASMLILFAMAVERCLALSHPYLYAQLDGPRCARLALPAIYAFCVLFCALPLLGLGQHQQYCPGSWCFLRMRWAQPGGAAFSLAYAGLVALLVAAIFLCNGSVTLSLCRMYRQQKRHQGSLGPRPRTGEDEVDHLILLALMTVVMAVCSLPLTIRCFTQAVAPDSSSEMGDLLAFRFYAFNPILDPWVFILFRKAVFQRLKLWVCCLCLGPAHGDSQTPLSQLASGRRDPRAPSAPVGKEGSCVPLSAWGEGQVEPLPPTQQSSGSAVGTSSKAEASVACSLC
Protocol: (§1) Cyclic AMP assay kit: Multiscreen™ TR-FRET cAMP 1.0 No Wash Assay Kit (Multispan, Inc.)
(§2) Cells were thawed from frozen cells and resuspended in assay buffer at desired concentrations. cAMP or Calcium assays were performed according to the manufacturer's protocol using Multiscreen™ TR-FRET cAMP 1.0 No Wash Assay Kit or Multiscreen™ Calcium 1.0 No Wash Kit.
(§3) Gas Cyclic AMP (cAMP) Assay: In agonist mode testing, cells were seeded in a 384-well plate at an appropriate density and then were treated with compounds and incubated at 37° C. for 20 minutes. The reaction was terminated by […] trFluor™ Eu-labeled cAMP and trFluor™ 650-labeled anti-cAMP antibody in lysis buffer. […] All testing wells contained 0.1% DMSO in the final concentrations.
(§4) Data in graphs are represented in Mean±SD. Dose-dependent responses were fitted with sigmoidal dose-response curves allowing variable slopes using GraphPad Prism version 6 (Graphpad Prism).
(§5) These studies used cell lines overexpressing either human IP, EP2 or DP1, or EP1 receptors, and following incubation with varying concentrations of compounds, cAMP levels were measured using Fluorescence Resonance Energy Transfer (FRET).

[6] = biological target: T1, prostaglandin D2 (PGD2) receptor 1 (DP1) (Homo sapiens, UniProt Q13258); experiment: DP1 receptor cAMP agonist assay (HEK293T cells); assay type: cell-based; conditions: for DP1 Relative to Tre: Table 22, relative to treprostinil EC50 values, * partial agonists or ambiguous dose-response curves
T1 sequence (Q13258 1-359): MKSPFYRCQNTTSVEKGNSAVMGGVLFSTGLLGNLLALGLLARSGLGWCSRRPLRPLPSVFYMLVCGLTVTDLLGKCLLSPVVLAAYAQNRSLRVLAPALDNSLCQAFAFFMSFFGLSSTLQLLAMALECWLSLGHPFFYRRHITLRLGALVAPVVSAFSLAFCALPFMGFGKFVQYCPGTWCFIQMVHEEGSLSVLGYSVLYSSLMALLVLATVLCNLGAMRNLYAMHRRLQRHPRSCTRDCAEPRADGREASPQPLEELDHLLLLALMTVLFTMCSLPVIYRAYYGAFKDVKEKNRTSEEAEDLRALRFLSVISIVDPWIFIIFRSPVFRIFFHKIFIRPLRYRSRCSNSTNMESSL
Protocol: as §1, §2, §3, §4, §5

CCCCCC(CCC1C(O)CC2Cc3c(cccc3OCC(=O)O)CC21)OC(C)=O (centres unmarked) [Prodrug XLIII]
Treprostinil Concentration 0 min [1]: 0.00744 µM | Treprostinil Concentration 120 min [1]: 0.507 µM | Mono AUC (treprostinil formed) ([1]; human): 62.2 µmol·min/L | Treprostinil Concentration 0 min [2]: 0.00292 µM | Treprostinil Concentration 120 min [2]: 0.503 µM | Mono AUC (treprostinil formed) ([2]; rat): 41.4 µmol·min/L | Treprostinil Concentration 15 min [3]: 0.628 µM | Treprostinil Concentration 120 min [3]: 0.4 µM | Mono AUC (treprostinil formed) ([3]; dog): 54.0 µmol·min/L | Treprostinil Concentration 0 min [4]: 0.0034 µM | Treprostinil Concentration 30 min [4]: 0.382 µM | Treprostinil Concentration 60 min [4]: 0.583 µM | Treprostinil Concentration 120 min [4]: 0.839 µM | Mono AUC (treprostinil formed) ([4]; human): 62.92 µmol·min/L | IP Relative to Tre [5]: 632x | DP1 Relative to Tre [6]: 272x

treprostinil diacetate [Prodrug LXXII]
Trep Concentration (μM) 0 min [1]: 0.00458 µM | Trep Concentration (μM) 15 min [1]: 0.562 µM | Trep Concentration (μM) 30 min [1]: 0.491 µM | Trep Concentration (μM) 60 min [1]: 0.433 µM | Treprostinil Concentration 0 min [1]: 0.00458 µM | CLint, calculated (in parentheses) ([1]; hepatocytes): 0.276 mL/min/mg protein | Half-life, calculated (in parentheses) ([1]; hepatocytes): 1.67 min | AUC ([1]; human): 49.92 µmol·min/L | Mono AUC (treprostinil formed) ([1]; human): 49.9 µmol·min/L | CLint ([1]; human, hepatocytes): > 0.0308 mL/min/mg protein | Half-life ([1]; human, hepatocytes): < 15 min | Trep Concentration (μM) 0 min [2]: 0 µM | Trep Concentration (μM) 15 min [2]: 0.24 µM | Trep Concentration (μM) 30 min [2]: 0.301 µM | Trep Concentration (μM) 60 min [2]: 0.298 µM | Trep Concentration (μM) 120 min [2]: 0.274 µM | Treprostinil Concentration 0 min [2]: 0 µM | Treprostinil Concentration 120 min [2]: 0.274 µM | CLint, calculated (in parentheses) ([2]; hepatocytes): 0.0697 mL/min/mg protein | Half-life, calculated (in parentheses) ([2]; hepatocytes): 6.63 min | AUC ([2]; rat): 32 µmol·min/L | Mono AUC (treprostinil formed) ([2]; rat): 32.0 µmol·min/L | CLint ([2]; rat, hepatocytes): > 0.0308 mL/min/mg protein | Half-life ([2]; rat, hepatocytes): < 15 min | Trep Concentration (μM) 0 min [3]: 0.0636 µM | Trep Concentration (μM) 30 min [3]: 0.541 µM | Trep Concentration (μM) 60 min [3]: 0.465 µM | Trep Concentration (μM) 120 min [3]: 0.401 µM | Treprostinil Concentration 15 min [3]: 0.671 µM | Treprostinil Concentration 120 min [3]: 0.401 µM | AUC ([3]; dog): 55.67 µmol·min/L | Mono AUC (treprostinil formed) ([3]; dog): 55.7 µmol·min/L | CLint ([3]; dog, hepatocytes): >0.0308 mL/min/mg protein | Half-life ([3]; dog, hepatocytes): <15 min | Trep Concentration 0 min [4]: 0 µM | Trep Concentration 30 min [4]: 0.02 µM | Trep Concentration 60 min [4]: 0.0556 µM | Trep Concentration 120 min [4]: 0.147 µM | Treprostinil Concentration 0 min [4]: 0 µM | Treprostinil Concentration 30 min [4]: 0.02 µM | AUC ([4]; human): 7.512 µmol·min/L | Mono AUC (treprostinil formed) ([4]; human): 7.512 µmol·min/L | Activity at the IP receptor compared to treprostinil ([5]; summary of findings): inactive | Activity at the DP1 receptor compared to treprostinil ([6]; summary of findings): several hundred-fold less active

CCCCCC(CCC1C(O)CC2Cc3c(cccc3OCC(=O)O)CC21)OC(=O)CC (centres unmarked) [Prodrug LV]
Treprostinil Concentration 0 min [1]: 0.113 µM | Treprostinil Concentration 120 min [1]: 0.527 µM | Mono AUC (treprostinil formed) ([1]; human): 68.8 µmol·min/L | Treprostinil Concentration 0 min [2]: 0.0159 µM | Treprostinil Concentration 120 min [2]: 0.391 µM | Mono AUC (treprostinil formed) ([2]; rat): 49.3 µmol·min/L | Treprostinil Concentration 15 min [3]: 0.781 µM | Treprostinil Concentration 120 min [3]: 0.53 µM | Mono AUC (treprostinil formed) ([3]; dog): 71.2 µmol·min/L | Treprostinil Concentration 0 min [4]: 0.0045 µM | Treprostinil Concentration 30 min [4]: 0.545 µM | Mono AUC (treprostinil formed) ([4]; human): 78.38 µmol·min/L | IP Relative to Tre [5]: 54x | DP1 Relative to Tre [6]: 94x
